Measured values reported in US20190380965A1 (priority 2018, published 2019).
Like-named read-outs stand apart in the source and are kept apart here.

Format: physicochemical
Conditions: for drug dissolved in water: 500 mg flucytosine added to 10 mL water
Method: The powder and granule pharmaceutical compositions of the present invention dissolve or suspend when added to water quickly. This pharmaceutical composition is therefore termed as “quick water-dispersing”. The term “quick” herein is defined as less than 2 to 3 minutes when shaken gently. In other words, when the granules are added to water, and gently mixed, a suspension is formed in less than 2 to 3 minutes. The “quick water-dispersing” property was achieved by selecting a correct particle size of suspending agent(s) which is the novelty of this invention. The suspension is achieved by simple mixing of powder in water—without use of complex instruments which are available in the home-environment to patients. […] After reaching the gastro-intestinal tract, the remaining drug dissolves. The pharmaceutical compositions according to the present invention provide for an immediate release of the Flucytosine from the dosage form.
USP II apparatus were used and UV-visible spectrometer was used for quantification of Flucytosine from dissolution. […] When we combine other antifungal agents in this formulation, the dissolved fraction of flucytosine will change.

Nc1nc(=O)[nH]cc1F [Flucytosine, 5-fluorocytosine]
drug dissolved in water: about 150 mg
drug dissolved in water (listed as flucytosine): 150 mg
water needed to dissolve the drug (dose of 500 mg flucytosine): 33.3 mL
